“And” between values parts separate entries of the source, which are not always exact repeats. Equal values may be shown once. Where a name gives a salt, the structure may show the parent alone. Read-outs that look alike come from different tables or passages of the source.
Test system: β2AR
Conditions: for competition binding curve vs isoproterenol (Extended Data Figure 3M), Fit / competition binding curve vs isoproterenol (Extended Data Figure 3L), Fit: fitted curve; for competition binding curve vs isoproterenol (Extended Data Figure 3L), Fit / competition binding curve vs isoproterenol (Extended Data Figure 3L): Wild-Type + Gs-Peptide
Protocol: Reactions were equilibrated, washed, and measured following the same procedure listed above for the radioligand antagonist-binding assay. […] Weighted averages of these IC50 values were used for comparison purposes and inhibition constant (Ki) calculations. […] Binding assays were performed in technical duplicates. Three biological replicates were collected with different membrane preparations for each replicate.

CC(C)NCC(O)c1ccc(O)c(O)c1 (stereo not drawn) [Isoproterenol, isoproterenol (+)-bitartrate salt]
competition binding curve vs isoproterenol (Extended Data Figure 3M), Fit (Sensor + Gs-peptide, Isoproterenol 1.00E-03 M): 1.12
competition binding curve vs isoproterenol (Extended Data Figure 3M) (Sensor + Gs-peptide, Isoproterenol 1.00E-03 M, replicates 1-3 and Average): 0.73 and -0.00169
competition binding curve vs isoproterenol (Extended Data Figure 3M), Fit (Sensor + Gs-peptide, Isoproterenol 1.00E-04 M): 1.39
competition binding curve vs isoproterenol (Extended Data Figure 3M) (Sensor + Gs-peptide, Isoproterenol 1.00E-04 M, replicates 1-3 and Average): 1.06 and 1.58 and 0.34 and 1.27
competition binding curve vs isoproterenol (Extended Data Figure 3M), Fit (Sensor + Gs-peptide, Isoproterenol 1.00E-05 M): 3.99
competition binding curve vs isoproterenol (Extended Data Figure 3M) (Sensor + Gs-peptide, Isoproterenol 1.00E-05 M, replicates 1-3 and Average): 5.22 and 6.17 and 4.29 and 5.19
competition binding curve vs isoproterenol (Extended Data Figure 3M), Fit (Sensor + Gs-peptide, Isoproterenol 1.00E-06 M): 22.44
competition binding curve vs isoproterenol (Extended Data Figure 3M) (Sensor + Gs-peptide, Isoproterenol 1.00E-06 M, replicates 1-3 and Average): 22.22 and 23.42 and 21.91 and 21.33
competition binding curve vs isoproterenol (Extended Data Figure 3M), Fit (Sensor + Gs-peptide, Isoproterenol 1.00E-07 M): 61.20
competition binding curve vs isoproterenol (Extended Data Figure 3M) (Sensor + Gs-peptide, Isoproterenol 1.00E-07 M, replicates 1-3 and Average): 61.19 and 63.45 and 61.62 and 58.48
competition binding curve vs isoproterenol (Extended Data Figure 3M), Fit (Sensor + Gs-peptide, Isoproterenol 1.00E-08 M): 85.17
competition binding curve vs isoproterenol (Extended Data Figure 3M) (Sensor + Gs-peptide, Isoproterenol 1.00E-08 M, replicates 1-3 and Average): 85.29 and 86.69 and 86.58 and 82.61
competition binding curve vs isoproterenol (Extended Data Figure 3M), Fit (Sensor + Gs-peptide, Isoproterenol 1.00E-09 M): 97.00
competition binding curve vs isoproterenol (Extended Data Figure 3M) (Sensor + Gs-peptide, Isoproterenol 1.00E-09 M, replicates 1-3 and Average): 96.71 and 101.87 and 95.55 and 92.70
competition binding curve vs isoproterenol (Extended Data Figure 3M), Fit (Sensor + Gs-peptide, Isoproterenol 1.00E-10 M): 99.03
competition binding curve vs isoproterenol (Extended Data Figure 3M) (Sensor + Gs-peptide, Isoproterenol 1.00E-10 M, replicates 1-3 and Average): 97.96 and 100.63 and 97.15 and 96.10
competition binding curve vs isoproterenol (Extended Data Figure 3M), Fit (Sensor, Isoproterenol 1.00E-03 M): 0.48
competition binding curve vs isoproterenol (Extended Data Figure 3M) (Sensor, Isoproterenol 1.00E-03 M, replicates 1-3 and Average): 0.69 and 0.84 and -0.72 and 0.27
competition binding curve vs isoproterenol (Extended Data Figure 3M) (Sensor, Isoproterenol 1.00E-04 M, replicates 1-3 and Average): 1.32 and 1.71 and -0.50 and 0.84
competition binding curve vs isoproterenol (Extended Data Figure 3M), Fit (Sensor, Isoproterenol 1.00E-05 M): 5.70
competition binding curve vs isoproterenol (Extended Data Figure 3M) (Sensor, Isoproterenol 1.00E-05 M, replicates 1-3 and Average): 7.08 and 7.24 and 5.39 and 6.57
competition binding curve vs isoproterenol (Extended Data Figure 3M), Fit (Sensor, Isoproterenol 1.00E-06 M): 30.01
competition binding curve vs isoproterenol (Extended Data Figure 3M) (Sensor, Isoproterenol 1.00E-06 M, replicates 1-3 and Average): 30.57 and 29.08 and 29.48 and 29.71
competition binding curve vs isoproterenol (Extended Data Figure 3M), Fit (Sensor, Isoproterenol 1.00E-07 M): 74.45
competition binding curve vs isoproterenol (Extended Data Figure 3M) (Sensor, Isoproterenol 1.00E-07 M, replicates 1-3 and Average): 73.61 and 76.73 and 72.17 and 74.17
competition binding curve vs isoproterenol (Extended Data Figure 3M), Fit (Sensor, Isoproterenol 1.00E-08 M): 96.90
competition binding curve vs isoproterenol (Extended Data Figure 3M) (Sensor, Isoproterenol 1.00E-08 M, replicates 1-3 and Average): 94.98 and 101.48 and 95.93 and 97.46
competition binding curve vs isoproterenol (Extended Data Figure 3M), Fit (Sensor, Isoproterenol 1.00E-09 M): 100.28
competition binding curve vs isoproterenol (Extended Data Figure 3M) (Sensor, Isoproterenol 1.00E-09 M, replicates 1-3 and Average): 98.04 and 104.41 and 99.80 and 100.75
competition binding curve vs isoproterenol (Extended Data Figure 3M), Fit (Sensor, Isoproterenol 1.00E-10 M): 100.63
competition binding curve vs isoproterenol (Extended Data Figure 3M) (Sensor, Isoproterenol 1.00E-10 M, replicates 1-3 and Average): 100.71 and 99.53 and 99.04 and 99.76
competition binding curve vs isoproterenol (Extended Data Figure 3M), Fit (Sensor, Isoproterenol 5.00E-06 M): 10.04
competition binding curve vs isoproterenol (Extended Data Figure 3M) (Sensor, Isoproterenol 5.00E-06 M, replicates 2-3 and Average): 10.13 and 9.02 and 9.58
competition binding curve vs isoproterenol (Extended Data Figure 3M), Fit (Sensor, Isoproterenol 5.00E-07 M): 42.59
competition binding curve vs isoproterenol (Extended Data Figure 3M) (Sensor, Isoproterenol 5.00E-07 M, replicates 2-3 and Average): 41.48 and 44.45 and 42.96
competition binding curve vs isoproterenol (Extended Data Figure 3L), Fit (Isoproterenol 1.00E-03 M): 0.69
competition binding curve vs isoproterenol (Extended Data Figure 3L) (Isoproterenol 1.00E-03 M, replicates 1-3 and Average): 0.0116 and 0.0442 and 0.27 and -0.28
competition binding curve vs isoproterenol (Extended Data Figure 3L), Fit (Isoproterenol 1.00E-04 M): 1.04
competition binding curve vs isoproterenol (Extended Data Figure 3L) (Isoproterenol 1.00E-04 M, replicates 1-3 and Average): 0.88 and 0.89 and 0.84 and 0.90
competition binding curve vs isoproterenol (Extended Data Figure 3L), Fit (Isoproterenol 1.00E-05 M): 4.37
competition binding curve vs isoproterenol (Extended Data Figure 3L) (Isoproterenol 1.00E-05 M, replicates 1-3 and Average): 5.43 and 5.70 and 4.92 and 5.68
competition binding curve vs isoproterenol (Extended Data Figure 3L), Fit (Isoproterenol 1.00E-06 M): 26.38
competition binding curve vs isoproterenol (Extended Data Figure 3L) (Isoproterenol 1.00E-06 M, replicates 1-3 and Average): 26.11 and 25.98 and 23.88 and 28.47
competition binding curve vs isoproterenol (Extended Data Figure 3L), Fit (Isoproterenol 1.00E-07 M): 67.56
competition binding curve vs isoproterenol (Extended Data Figure 3L) (Isoproterenol 1.00E-07 M, replicates 1-3 and Average): 67.66 and 67.54 and 65.49 and 69.94
competition binding curve vs isoproterenol (Extended Data Figure 3L), Fit (Isoproterenol 1.00E-08 M): 91.53
competition binding curve vs isoproterenol (Extended Data Figure 3L) (Isoproterenol 1.00E-08 M, replicates 1-3 and Average): 91.27 and 90.42 and 91.58 and 91.80
competition binding curve vs isoproterenol (Extended Data Figure 3L), Fit (Isoproterenol 1.00E-09 M): 98.02
competition binding curve vs isoproterenol (Extended Data Figure 3L) (Isoproterenol 1.00E-09 M, replicates 1-3 and Average): 99.15 and 99.41 and 97.66 and 100.39
competition binding curve vs isoproterenol (Extended Data Figure 3L), Fit (Isoproterenol 1.00E-10 M): 98.82
competition binding curve vs isoproterenol (Extended Data Figure 3L) (Isoproterenol 1.00E-10 M, replicates 1-3 and Average): 99.26 and 100.00 (2×) and 97.78

Reference: article PMC10033409, “Autoregulation of GPCR signalling through the third intracellular loop” (Nature, 2023)
